ChEMBL document CHEMBL6074645, “Structure-based virtual screening discovers novel PKMYT1 inhibitors” (RSC Med Chem, 2024)

Experiments:
[1] = biological target: T1, Membrane-associated tyrosine- and threonine-specific cdc2-inhibitory kinase (Homo sapiens, UniProt Q99640); assay: Inhibition of PKMYT1 (unknown origin) incubated for 1 hr by LanthaScreen Eu kinase binding method
T1 sequence (Q99640 whole entry): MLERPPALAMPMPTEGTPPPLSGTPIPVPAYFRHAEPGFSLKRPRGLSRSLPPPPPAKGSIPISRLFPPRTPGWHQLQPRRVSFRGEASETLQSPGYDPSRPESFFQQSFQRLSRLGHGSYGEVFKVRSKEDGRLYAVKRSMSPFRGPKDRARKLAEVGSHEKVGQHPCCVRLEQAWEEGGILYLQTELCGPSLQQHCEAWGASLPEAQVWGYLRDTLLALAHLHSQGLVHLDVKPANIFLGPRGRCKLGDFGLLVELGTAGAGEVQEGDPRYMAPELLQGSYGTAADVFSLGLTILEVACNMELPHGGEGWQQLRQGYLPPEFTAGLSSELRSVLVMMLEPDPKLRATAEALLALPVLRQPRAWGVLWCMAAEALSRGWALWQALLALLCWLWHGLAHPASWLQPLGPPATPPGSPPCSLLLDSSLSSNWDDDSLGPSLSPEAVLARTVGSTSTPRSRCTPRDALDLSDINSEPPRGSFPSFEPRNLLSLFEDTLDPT

[2] = biological target: T1, Membrane-associated tyrosine- and threonine-specific cdc2-inhibitory kinase; assay: Displacement of fluorescently labeled tracer from human PKMYT1 (75 to 362 residues) expressed in Escherichia coli BL21 (DE3) by fluorescence anisotropy based kinase assay

Compound	IC50 [1]	IC50 [2]
O=C(O[C@@H]1Cc2c(O)cc(O)cc2O[C@@H]1c1cc(O)c(O)c(O)c1)c1cc(O)c(O)c(O)c1 [EPIGALOCATECHIN GALLATE]	137 nM	
O=C(O[C@@H]1Cc2c(O)cc(O)cc2O[C@H]1c1cc(O)c(O)c(O)c1)c1cc(O)c(O)c(O)c1 [GALLOCATECHIN GALLATE]	159 nM	
O=c1c(-c2ccc(O)cc2)coc2cc(O)cc(O)c12 [GENISTEIN]	78000 nM	
COc1ccc(-c2oc3c(CC=C(C)C)c(O)cc(O)c3c(=O)c2O)cc1 [ICARITIN]	51000 nM	
O=c1cc(-c2ccc(O)c(O)c2)oc2cc(O)cc(O)c12 [LUTEOLIN]	1500 nM	
CCN(CC)CCOc1ccc(Nc2ncc3cc(-c4c(Cl)cccc4Cl)c(=O)n(C)c3n2)cc1 [PD-0166285]		72 nM
